The target of assay [1] is AC17-4 RNA aptamer. Briefly: Affinity measurement by SPR, AC17-4 immobilized chip. Format: binding. As to conditions: for Kd: 25 °C; for affinity for AC17-4 (in words): ASP2905 versus ASP7967. As to the method: Affinity measurements of the aptamers with the ligands by SPR were performed as described by Chang et al.^53 with some modifications. Experiments were performed on Biacore T200 (Cytiva) at 25° C. For immobilization of the capture DNA (5′-/5AmMC6/[…]-3′ (SEQ ID NO: 32),/5AmMC6/: 5′ amino modifier C6, IDT), 1×HBS-N (10 mM HEPES, pH 7.4, 150 mM NaCl) was used as the running buffer. CM5 chip surface was washed by two injections of NaOH/NaCl solution (25 mM NaOH, 1 M NaCl) at 20 μl min^−1 for 30 s. Next, a solution containing 200 mM 1-ethyl-3-(3-dimethylaminopropyl) carbodiimide hydrochloride (EDC) and 50 mM N-hydroxysuccinimide (NHS) was injected into all flow cells at 10 μl min^−1 for 7 min to activate the surface carboxylic acid groups. Then, the capture DNA (20 μM) in 10 mM HEPES-KOH buffer (pH 7.5) supplemented with 0.6 mM cetyltrimethylammonium bromide was injected at 5 μl min^−1 for 10 min. The unreacted activated carboxylic acid groups were quenched by an injection of 1 M ethanolamine-HCl (pH 8.5) for 7 min at 10 μl min^−1. To remove the noncovalently adsorbed DNA on the chip surface, NaOH/NaCl solution was injected two times at 20 μl min^−1 for 30 s. The immobilized DNA levels were 2846±284 RU.
The dsDNA templates for in vitro transcription of the aptamers were prepared by primer extension of two oligo DNAs using Q5 High-Fidelity DNA Polymerase (NEB). AC17-4 RNA aptamer and its mutants containing 3′ poly(A) tail (Table 4) were synthesized by in vitro transcription using ScriptMAX Thermo T7 Transcription Kit (TOYOBO) according to the manufacturer's instructions. The reaction products were treated with 2 U TURBO DNase (Thermo Fisher Scientific) for 30 min at 37° C. and purified with RNA Clean & Concentrator-25 Kit (Zymo Research). RNA concentrations were determined by absorbance at 260 nm according to OligoCalc^54. RNA solutions (~3.6 μM) were prepared in water and denatured by heating at 80° C. for 3 min. After cooling at room temperature for few minutes, the RNA solutions were diluted with an equal volume of high salt buffer (10 mM Tris-HCl, pH 7.5, 1 M NaCl, 1 mM EDTA). Stock solutions of ASP2905 and ASP7967 in DMSO (20 mM, fumaric acid adduct, Astellas Pharma, Inc.) were prepared based on the weight. […] An aptamer ligand was injected at 30 μl min^−1 for 120 s to monitor association, and then the dissociation kinetics was monitored for 180 s in the SPR running buffer. […] The raw data were analysed by Biacore T200 Evaluation Software 1.0 using 1:1 Langmuir interaction model. […] Dissociation constant (KD) was determined from the ratio of the association and the dissociation rate constants (KD=koff/kon) or by equilibrium analysis. […]

The test system of assay [2] is a8-AC17-4-CPP riboswitch (EGFP expression in HEK293 cells). Briefly: Riboswitch assay in HEK293 cells, a8-AC17-4-CPP, ligand response. Format: cell-based. To be noted: for fold induction at 5 µM: 48 h, 5 μM ligand, HEK293 cells, read-out: activation of EGFP / gene expression (ON/OFF). How it is done: HEK293 cells were cultured in Dulbecco's modified Eagle's medium (DMEM) supplemented with 10% heat-inactivated FBS (Gibco) containing 2 mM L-glutamine and 100 units ml^−1 of penicillin-streptomycin (DMEM-FBS). Cells were kept in a 37° C. incubator with 5% CO2 and passaged regularly upon reaching 90% confluency. Approximately 20 h prior to transfection, the cells were trypsinized, diluted to ~2.7×10^5 cells ml^−1 and 100 μl per well were seeded onto a 96-well plate. Cells in each well were cotransfected with 100 ng of the EGFP-aptazyme plasmid and 20 ng of pCMV-mCherry^27 (transfection control) using 0.3 μl of TransIT-293 Transfection Reagent (Mirus) according to the manufacturer's instructions. Five hours after transfection, the medium in each well was replaced with fresh medium with (up to 5 μM) or without ASP2905 or ASP7967. The aptamer ligands were dissolved at 1000× concentration in DMSO. Forty-eight hours after transfection, the medium in each well was replaced with 100 μl of phosphate buffered saline (PBS), and fluorescence intensity was measured by Infinite M1000 PRO microplate reader (Tecan). Fluorescence intensity was measured at 484 nm excitation/510 nm emission/5 nm bandwidth for EGFP, and at 587 nm excitation/610 nm emission/10 nm bandwidth for mCherry. Background fluorescence measured using untransfected cells was subtracted from the EGFP and mCherry fluorescence values. Then, EGFP fluorescence was normalized by mCherry fluorescence to account for variations in transfection efficiency and cell counts. All reported values are averages of three replicate wells.
The anti-Rz sequence was varied from 6 to 10 nucleotides, and the aptazyme was inserted in the 3′ UTR of the EGFP transcript.
The EGFP-riboswitch plasmid and an mCherry-expressing plasmid (transfection control) were cotransfected into HEK293 cells in the absence or presence (5 μM) of ASP2905 or ASP7967. EGFP and mCherry fluorescence was measured two days after transfection, and EGFP fluorescence was normalized by mCherry fluorescence to account for variability in transfection efficiency. […] We attribute this to the coincidental complementarity of the nucleotides preceding anti-Rz (CA) to the ribozyme sequence, making the effective anti-Rz sequence length longer than intended.
The riboswitch a8-AC17-4-CPP was further analyzed for the dose dependent response to ASP7967 (FIG. 6d).

This is an account of results in US20260327628A1, “AN RNA APTAMER THAT BINDS TO ASP7967 OR AN ANALOGUE THEREOF” (priority 2022, published 2026).

A word on the Kd: it is the free concentration of one partner at which half of the binding sites on the other are occupied at equilibrium, for simple one-to-one binding. A high value points to lower affinity. As usually defined, the EC50 is the midpoint of the concentration-response curve. Read a high EC50 as a less potent agent.

As for `Fc1ccc(Nc2nc(NCc3ncccn3)nc(Nc3ccccc3)n2)cc1` [ASP2905, reference compound], in assay [1], the equilibrium dissociation constant (Kd) stood at 7.7 nM and the “affinity for AC17-4 (in words)” value is “comparable affinity”. Also, in assay [2] (Homo sapiens), the fold induction at 5 µM was roughly 10.
In the case of `Fc1ccc(Nc2nc(NCc3ncccn3)nc(Nc3ccc(F)cc3)n2)cc1` [ASP7967], in assay [1], the affinity, expressed as Kd, was 12 nM and the “affinity for AC17-4 (in words)” value is recorded as “comparable affinity”. Besides, the “ASP7967 concentration at which riboswitch response mostly saturated” value in assay [2] was 5 µM. In addition, the fold induction at 5 µM in assay [2] (Homo sapiens) is roughly 10. Also, the 50% effective concentration (EC50) in assay [2] (Homo sapiens, HEK293, dose dependent response) is roughly 1100 nM.
